Experimental data: patent US11058780B2, “Palpable marker composition” (TECHNICAL UNIVERSITY OF DENMARK, priority 2016, dated 2021)

Test: Solubility in ethanol and doping of iodo-SAIB into SAIB
Type: physicochemical
Conditions: neat LOIB

solubility in anhydrous EtOH: readily dissolves
Structure (SMILES): CC(C)C(=O)OC[C@H]1O[C@@H](O[C@H]2[C@H](OC(=O)C(C)C)[C@@H](OC(=O)C(C)C)C(OC(=O)C(C)C)O[C@@H]2COC(=O)C(C)C)[C@H](OC(=O)C(C)C)[C@@H](OC(=O)C(C)C)[C@H]1OC(=O)C(C)C (stereo partly drawn) [LOIB, α,β Lactose Octaisobutyrate]
